Where two headings read alike, the source gives them in different places.
Legend:
[1] = system: P. aeruginosa clinical isolate biofilms; experiment: Biofilm dispersal and prevention, crystal violet 96-well assay (Example 1); format: cell-based, Pseudomonas aeruginosa; details: 5 mM; for biofilm dispersal against panel of clinical isolates (biofilm biomass OD570): P. aeruginosa clinical isolates, FIGS. 3A, 3C; for biofilm dispersal in pre-screening of eight D-AAs: pre-formed P. aeruginosa biofilms, FIG. 1
Protocol: (§1) Biofilm formation was performed under static conditions in polystyrene 96-well plates (Corning, Inc., Corning, N.Y.). Briefly, overnight bacterial cultures were diluted to an OD600 of 0.1 in CA-MHB and 10 μL was added to individual wells filled with 190 μl of media and incubated at 37° C. for 48 h without shaking for biofilm growth. Following incubation, culture media was removed and 200 μL media containing individual D-AA at concentrations of 5 mM-1 nM was added. Plates were incubated for an additional 24 h at 37° C. After treatment, plates were gently washed with 1× phosphate buffered saline (PBS; pH 7.4) to remove non-adherent bacteria. Biofilms (i.e. attached cells) were then stained with 0.1% (w/v) crystal violet for 10 min, washed, followed by solubilization of crystal violet with 33% (v/v) acetic acid for 10 min. Biofilm biomass was determined by measuring the absorbance at 570 nm using a microtiter plate reader. For assays measuring the ability of D-AA to block biofilm formation, cells were grown under biofilm conditions as above in the presence of media containing D-AA. Three independent experiments with a minimum of 4 replicates were performed for each experimental assay. Representative images of the plates of CV stained biofilms following treatment with D-AA, prior to solubilization, were taken using a digital camera.

[2] = Release of D-AAs from PUR scaffolds in PBS (HPLC); format: physicochemical
Protocol: Also, kinetic release assays were performed on the PUR scaffolds by incorporating 10 wt % of a 1:1:1 mixture of D-Tr:D-Pro:D-Met incubated in PBS for up to 8 weeks. The medium was be sampled twice weekly and analyzed for D-AAs by HPLC.
PUR scaffolds incorporating 10 wt % of a 1:1:1 mixture of D-Met:D-Pro:D-Trp were incubated in PBS at 37° C. under static conditions for up to 8 weeks. This mixture was evaluated in vitro, in vivo and in the release kinetics tests to account for potential interactions between D-AAs during release. The medium was sampled on days 1, 2, 4, 7, 10, 14, 21, and 28 and analyzed for D-AAs by HPLC using a system equipped with a Waters 1525 binary pump and a 2487 Dual-Absorbance Detector at 200 nm. Samples of released D-AAs were eluted through an Atlantis HILIC Silica column (5 μm particle size, 4.6 mm diameter×250 mm length) using an isocratic mobile phase flowing at 1 mL/min. The mobile phase contained 2.5 mM potassium dihydrogen phosphate with pH=2.85 (A) and Acetonitrile (B) at a ratio of A25:B75. The column oven temperature was maintained at 30° C. Sample concentration was determined in reference to an external standard curve using the Waters Breeze system. Standard curves were prepared in the following concentration ranges: (1) 7.8 μg/mL to 1 mg/mL for D-Met and D-Pro and (2) […] to 100 μg/mL for D-Trp.

[3] = system: S. aureus clinical isolate biofilms; experiment: Biofilm dispersal and prevention, crystal violet 96-well assay (Example 1); format: cell-based, Staphylococcus aureus; details: 5 mM; for biofilm dispersal against panel of clinical isolates (biofilm biomass OD570): S. aureus clinical isolates, FIGS. 3A, 3C; for biofilm dispersal in pre-screening of eight D-AAs: pre-formed S. aureus biofilms, FIG. 1
Protocol: as §1

[4] = system: S. aureus clinical isolates biofilms; experiment: Biofilm dispersal and prevention, crystal violet assay (Example 3); format: cell-based; details: for dispersal of established biofilms (biofilm biomass): panel of clinical isolates of methicillin-resistant S. aureus (n=5), 5 mM, 24 h, FIGS. 8A, 8C; for biofilm dispersal in pre-screening of eight individual D-AAs: pre-formed biofilms of four clinical isolates, 0.001-50 mM, FIG. 7
Protocol: Like in Example 1, biofilm formation was assessed under static conditions using polystyrene 96-well plates (Corning, Inc.). Overnight bacterial cultures were diluted to an OD600 of 0.1 in TSB (˜10^7 CFU/mL), and 20 μL were added to individual wells filled with 180 μL of media and incubated at 37° C. for 48 h. To assess the biofilm dispersal activity of D-AAs, the culture medium from biofilms was removed after 48 h and 200 μL fresh medium containing either an individual D-AA or an equimolar mixture of D-AAs (1:1:1: D-Met:D-Pro:D-Trp) were added at the indicated concentrations. After treatment with D-AA(s) for 24 h, plates were gently washed with 1× phosphate buffered saline (PBS) to remove unattached cells, stained with 0.1% (w/v) crystal violet (Sigma Aldrich) for 10 min, rinsed with PBS, and then solubilized with 80% (v/v) ethanol. Biofilm biomass was determined by measuring the absorbance of solubilized stain at 570 nm using a microtiter plate reader. For assays measuring the ability of D-AA to block biofilm formation, cells were grown under biofilm conditions as above in the presence of media containing D-AAs. Representative images of the plates of CV-stained biofilms following treatment with D-AA prior to solubilization were taken using a digital camera. All assays were repeated in triplicate with a minimum of four technical replicates.

[5] = system: planktonic S. aureus clinical strains (UAMS-1, 103-700); experiment: MIC by CLSI broth microdilution, planktonic bacteria; format: cell-based, Staphylococcus aureus; details: for MIC: Staphylococcus aureus, 18 h
Protocol: Overnight cultures of bacterial strains were diluted to a final concentration of 5×10^5 CFU/ml in MHB-II. The resulting bacterial suspension was aliquoted (100 μL) into polystyrene round-bottom 96-well plates containing 100 μL of a 2× concentration of a previously serially diluted (1:2) antibiotic. Each antimicrobial tested was serially diluted 10 times. Following the addition of bacteria, the microtiter plate was covered and was incubated under stationary conditions at 37° C. in the presence of 1× antibiotics. […] MICs of antibiotics were determined in triplicate according to the Clinical and Laboratory Standards Institute (CLSI) broth microdilution as described by the performance standards for antimicrobial susceptibility testing (M100-S22, January 2012).

[6] = system: biofilm derived S. aureus clinical strains (UAMS-1, 103-700); experiment: Biofilm susceptibility, Calgary Biofilm device (MBEC plates): MBIC and viable CFU; format: cell-based, Staphylococcus aureus; details: for Biofilm (MBIC) 103-700: S. aureus 103-700 48 h biofilm; for Biofilm (MBIC) 103-700 / Biofilm (MBIC) UAMS-1: 24 h challenge, * = with 5 mM D-AA; for Biofilm (MBIC) UAMS-1: S. aureus UAMS-1 48 h biofilm; for % Decrease + SD in CFU, 8 μg/mL / % Decrease + SD in CFU, 16 μg/mL / % Decrease + SD in CFU, 32 μg/mL / % Decrease + SD in CFU, 64 μg/mL: S. aureus UAMS-1 biofilm; for % Decrease + SD in CFU, 8 μg/mL: antibiotic 8 μg/mL; for % Decrease + SD in CFU, 16 μg/mL: antibiotic 16 μg/mL; for % Decrease + SD in CFU, 32 μg/mL: antibiotic 32 μg/mL; for % Decrease + SD in CFU, 64 μg/mL: antibiotic 64 μg/mL, vs non-treated biofilms; for effect of the antimicrobial against biofilms when combined with the D-AA mixture: S. aureus biofilms, both strains, bacterial CFUs within biofilms
Protocol: Biofilm susceptibility to antimicrobial agents in the presence and absence of D-AA was determined using the Calgary Biofilm device. Briefly, biofilms from overnight cultures were established as above on individual pegs of the minimum biofilm eradication concentration (MBEC) plates (Innovotech, Canada) with agitation for 48 h at 37° C. Following incubation, the lid with pegs was removed from the incubation plate, washed by re-suspending pegs into plate with wells containing 200 μl of 1×PBS, then placed into a 96-well challenge plate containing pre-diluted antibiotics with or without an […] for an additional 24 h at 37° C. Following challenge plates were washed, and the attached viable cells on PEGs within the biofilm were determined by plating serial dilutions onto blood agar plates (Remel). Corresponding minimal biofilm inhibitory concentration (MBIC) was also determined by measuring the optical density in individual wells of the challenge plate at 600 nm. The lowest concentration of antibiotic for which an optical density of <0.100 was recorded as the MBIC. For each antibiotic, the MBIC was determined in the presence or absence of a mixture of D-AA (D-Phenylalanine, D-Methionine, and D-Tryptophan) at an equimolar concentration of 5 mM. Three independent experiments were performed for each of these assays, with a minimum of 3 replicates.

[7] = S. aureus 103-700, agents marked * in combination with equimolar 5 mM D-AA, read-out: Planktonic (MIC) 103-700
[8] = S. aureus UAMS-1, agents marked * in combination with equimolar 5 mM D-Phenylalanine, D-Tryptophan, D-Methionine, read-out: Planktonic (MIC) UAMS-1
[9] = S. aureus 103-700, agents marked * in combination with equimolar 5 mM D-AA

Row | Structure (SMILES) | biofilm dispersal against panel of clinical isolates (biofilm biomass OD570) [1] | biofilm dispersal in pre-screening of eight D-AAs [1] | cumulative release by day 28 ([2]; PUR scaffold with 10 wt % D-AA mixture, PBS 37° C.) | burst release ([2]; day 1, PUR scaffold with 10 wt % 1:1:1 D-Met:D-Pro:D-Trp, PBS 37° C.) | b parameter of Weibull model ([2]; fit of D-AA release data) | biofilm dispersal against panel of clinical isolates (biofilm biomass OD570) [3] | biofilm dispersal in pre-screening of eight D-AAs [3] | dispersal of established biofilms (biofilm biomass) [4] | biofilm dispersal in pre-screening of eight individual D-AAs [4] | MIC [5, 7] | MIC [5, 8] | Biofilm (MBIC) 103-700 [6] | Biofilm (MBIC) UAMS-1 [6] | % Decrease + SD in CFU, 8 μg/mL [6] | % Decrease + SD in CFU, 16 μg/mL [6] | % Decrease + SD in CFU, 32 μg/mL [6] | % Decrease + SD in CFU, 64 μg/mL [6] | Planktonic (MIC) 103-700 [5, 9] | effect of the antimicrobial against biofilms when combined with the D-AA mixture [6] | Planktonic (MIC) UAMS-1 ([5]; S. aureus UAMS-1, agents marked * in combination with equimolar 5 mM D-Phenylalanine, D-Tryptophan, D-Methionine)
1 | O=C(O)[C@H]1CCCN1 [D-Pro, D-proline] | capable of significantly dispersing biofilm formation | relatively more effective at dispersing biofilms | 85% | 45% | 0.35 | capable of significantly dispersing biofilm formation | relatively more effective at dispersing biofilms | effective at dispersing established biofilms | effective at dispersing biofilms | – | – | – | – | – | – | – | – | – | – | –
2 | Cc1nnc(SCC2=C(C(=O)O)N3C(=O)[C@@H](NC(=O)Cn4cnnn4)[C@H]3SC2)s1 [CFZ, Cefazolin] | – | – | – | – | – | – | – | – | – | 16 µg/mL | 0.5 µg/mL | >128 µg/mL | >128 µg/mL | – | – | – | – | – | – | –
3 | CCC[C@@H]1C[C@@H](C(=O)N[C@@H]([C@H]2O[C@H](SC)[C@H](O)[C@@H](O)[C@H]2O)[C@H](C)Cl)N(C)C1 [CLI, Clindamycin] | – | – | – | – | – | – | – | – | – | 0.5 µg/mL | 0.5 µg/mL | >64 µg/mL | 64 µg/mL | 1.8 ± 1.0% | 9.3 ± 1.8% | 32.86 ± 4.3% | 66.0 ± 3.4% | – | – | –
4 | Cc1onc(-c2ccccc2)c1C(=O)N[C@@H]1C(=O)N2[C@@H]1SC(C)(C)[C@@H]2C(=O)O [OXA, Oxacillin] | – | – | – | – | – | – | – | – | – | 8 µg/mL | 1 µg/mL | >64 µg/mL | >64 µg/mL | – | – | – | – | 8 µg/mL | – | –
5 | CO[C@H]1/C=C/O[C@@]2(C)Oc3c(C)c(O)c4c(O)c(c(/C=N/N5CCN(C)CC5)c(O)c4c3C2=O)NC(=O)/C(C)=C\C=C\[C@H](C)[C@H](O)[C@@H](C)[C@@H](O)[C@@H](C)[C@H](OC(C)=O)[C@@H]1C [RIF, Rifampin] | – | – | – | – | – | – | – | – | – | 0.5 µg/mL | 0.5 µg/mL | 32 µg/mL | 32 µg/mL | 16.87 ± 2.9% | 34.31 ± 5.4% | 70.70 ± 4.3% | 67.36 ± 1.2% | – | enhanced the effect | –
6 | CN[C@H](CC(C)C)C(=O)N[C@H]1C(=O)N[C@@H](CC(N)=O)C(=O)N[C@H]2C(=O)N[C@H]3C(=O)N[C@H](C(=O)N[C@H](C(=O)O)c4cc(O)cc(O)c4-c4cc3ccc4O)[C@H](O)c3ccc(c(Cl)c3)Oc3cc2cc(c3O[C@@H]2O[C@H](CO)[C@@H](O)[C@H](O)[C@H]2O[C@H]2C[C@](C)(N)[C@H](O)[C@H](C)O2)Oc2ccc(cc2Cl)[C@H]1O [VAN, Vancomycin] | – | – | – | – | – | – | – | – | – | – | – | >64 µg/mL | >64 µg/mL | 1.5 ± 5.7% | 15.93 ± 6.2% | 31.90 ± 7.1% | 65.97 ± 5.3% | 1 µg/mL | enhanced the effect | 0.5 µg/mL
7 | N[C@H](Cc1ccccc1)C(=O)O [D-Phe, D-phenylalanine] | capable of significantly dispersing biofilm formation | relatively more effective at dispersing biofilms | – | – | – | capable of significantly dispersing biofilm formation | relatively more effective at dispersing biofilms | effective at dispersing established biofilms | effective at dispersing biofilms | – | – | – | – | – | – | – | – | – | – | –

— patent US20150182667A1, “Composition with Biofilm Dispersal Agents” (Vanderbilt University, priority 2012, published 2015)
